One experiment relates to ASIC3. As to conditions: cited from earlier work; for Effect on ASIC3: lipids, ref [21]. An excerpt: Acid-sensing ion channels (ASICs) are members of ligand-gated cation channels and belong to the degenerin/epithelial Na^+ channel superfamily. Four genes (ACCN1–ACCN4) express six subunits (ASIC1a, ASIC1b, ASIC2a, ASIC2b, ASIC3, and ASIC4), four of which can form functional homomeric channels (ASIC1a, ASIC1b, ASIC2a, and ASIC3). ASIC channels are widely expressed throughout the neurons of central and peripheral nervous systems, where they play a role in neurotransmission, synaptic plasticity, and learning, and in ischemia, neuronal cell death.

Experiment [1] has as its system ASIC channels. The following applies: ref [14],[18],[19]; cited from earlier work. An excerpt:
All previously known activators of ASIC channels, both exogenous and endogenous, cause a persistent, slowly desensitized current that was different in kinetic parameters from currents induced by pH drops. […] Both agonists show rapid kinetics of desensitization of the currents and have a high Hill coefficient of activation. The identical efficiency with which the toxin Mamb-2 inhibits the nocistatin- and proton ...

In experiment [2] the test system is delayed rectifying K^+, voltage-gated Na^+, and L-type Ca^2+ currents. Also on record: method as in PMID 29477572. As to conditions: ref [19]; cited from earlier work.
Another experiment concerns rat ASIC3 channels. The arrangement: method as in 2 sources, ref [20] = [20]; PMID 29277899; doi:10.1111/bph.14134; 20. Osmakov D.I. Koshelev S.G. Andreev Y.A. Dubinnyi M.A. Kublitski V.S. Efremov R.G. Sobolevsky A.I. Kozlov S.A. Proton-independent activation of acid-sensing ion channel 3 by an alkaloid, lindoldham ||| ref [22] = [22]; PMID 28955199; doi:10.3389/fnmol.2017.00282; 22. Osmakov D.I. Koshelev S.G. Andreev Y.A. Kozlov S.A. Endogenous Isoquinoline Alkaloids Agonists of Acid-Sensing Ion Channel Type 3 Front. Mol. Neurosci. 2017 10 282 10.3389/fnmol.2017.00282 2895519. The following applies: cited from earlier work; for Effect on rat ASIC3: physiological pH, prevents steady-state desensitization, ref [22].

A further experiment has as its system human ASIC3 channels. The arrangement: method as in 2 sources, ref [20] = [20]; PMID 29277899; doi:10.1111/bph.14134; 20. Osmakov D.I. Koshelev S.G. Andreev Y.A. Dubinnyi M.A. Kublitski V.S. Efremov R.G. Sobolevsky A.I. Kozlov S.A. Proton-independent activation of acid-sensing ion channel 3 by an alkaloid, lindoldham ||| ref [22] = [22]; PMID 28955199; doi:10.3389/fnmol.2017.00282; 22. Osmakov D.I. Koshelev S.G. Andreev Y.A. Kozlov S.A. Endogenous Isoquinoline Alkaloids Agonists of Acid-Sensing Ion Channel Type 3 Front. Mol. Neurosci. 2017 10 282 10.3389/fnmol.2017.00282 2895519. The following applies: cited from earlier work; for Effect on human ASIC3: physiological pH, prevents steady-state desensitization, ref [22].

In another experiment the test system is ASIC1a. Briefly: Response of ASIC1a to nociceptin and orphanin. The format is cell-based, rat. As to conditions: applied under the same conditions as nocistatin, pH 7.4, pH drop to 5.5; n = 4. The procedure:
Oocytes expressed rASIC1a, rASIC1b, rASIC2a, and rASIC3 homomeric channels were prepared as described. Injected oocytes were kept for two–three days at 19 °C and then for up to seven days at 15 °C in ND-96 medium supplemented with gentamycin (50 μg·mL^−1) and containing (in mM): 96 NaCl, 2 KCl, 1.8 CaCl2, 1 MgCl2, and 10 HEPES titrated to pH 7.4 with NaOH. Electrophysiological recordings were performed using the GeneClamp500 amplifier (Axon Instruments, Inverurie, UK) at a holding potential of -50 mV. The data were filtered at 20 Hz and digitized at 100 Hz using the L780 AD converter (L-Card, Moscow, Russia). Microelectrodes were filled with 3 M KCl. The external bath solution was ND-96 with pH adjusted to 7.4/7.8 (10 mM HEPES) /8.5 (10 mM Tris). Nocistatin containing solutions were freshly prepared and buffered each experimental day in ND-96 bath solution (pH 7.4/7.8/8.5). Proton-activated currents through ASIC channels were elicited by application of ND-96, in which 10 mM of HEPES was substituted with 10 mM MES at pH 5.5/ 10 mM acetic acid at pH 4.5. The whole-cell recording was performed if a response to the control pH stimulus was stable in at least two replicates. […]
Figure S1. […] Currents were measured at a holding external bath pH 7.4 and were induced by a pH drop to 5.5. […]

The subject of experiment [3] is ASIC channels. The following applies: Supplementary Figure S1 and ref [23]; cited from earlier work. The text has this:
The nocistatin in mammalian is expressed as a precursor protein coding three neuropeptides (nocistatin, nociceptin, and Orphanin FQ2). […] Nocistatin is well represented in different parts of the brain and spinal cord. […] Nocistatin was studied in animal models as a prospective molecule together with opi ...

Where [4] appears, read: broad range of pH, including pH > 7.4, ref [20].

Results on eight compounds are retold here after paper PMC6769468, “Endogenous Neuropeptide Nocistatin Is a Direct Agonist of Acid-Sensing Ion Channels (ASIC1, ASIC2 and ASIC3)” (Biomolecules, 2019).

For `Cc1nc(NC(=N)N)nc2ccccc12` [GMQ, 2-guanidine-4-methylquinazoline], the “Action on ASIC3” value with ASIC3 (pH < 7.4, ref [18]) was “acting on ASIC3 at pH < 7.4 through a nonproton sensor”. Besides, the “Shape of current caused by activator” value in the experiment with ASIC channels [1] was “slowly developing, non-desensitizing and non-selective cation current”. Further, the “Modulation of K^+, Na^+ and Ca^2+ currents” value in experiment [2] was “modulating delayed rectifying K^+, voltage-gated Na^+, and L-type Ca^2+ currents”. In the case of `CCCCC/C=C\C/C=C\C/C=C\C/C=C\CCCC(=O)O` [arachidonic acid], the “Effect on ASIC3” value in the experiment with ASIC3 is “evoking a constitutive depolarizing ASIC3-mediated current”. Take `COc1cc2c(cc1O)[C@H](Cc1ccc(Oc3cc(C[C@@H]4NCCc5cc(OC)c(O)cc54)ccc3O)cc1)NCC2` [lindoldhamine]: the “Action on rat ASIC3” value in the experiment on rat ASIC3 channels (setting [4]) was “agonist and positive allosteric modulator”. Moreover, in the experiment on human ASIC3 channels (setting [4]), the “Action on human ASIC3” value is “agonist and positive allosteric modulator”. Turning to `COc1ccc(C[C@H]2c3cc(O)c(OC)cc3CCN2C)cc1O` [reticuline], in the experiment on rat ASIC3 channels, the “Effect on rat ASIC3” value is “activating human and rat ASIC3 channels at physiological pH and preventing a steady-state desensitization of the channels”. Also, the “Effect on human ASIC3” value with human ASIC3 channels is “activating human and rat ASIC3 channels at physiological pH and preventing a steady-state desensitization of the channels”.

Take `Oc1ccc(CC2NCCc3cc(O)c(O)cc32)cc1O` (stereo not drawn) [tetrahydropapaveroline (THP), tetrahydropapaveroline]: the “Effect on rat ASIC3” value with rat ASIC3 channels is “activating human and rat ASIC3 channels at physiological pH and preventing a steady-state desensitization of the channels”. The “Effect on human ASIC3” value with human ASIC3 channels is “activating human and rat ASIC3 channels at physiological pH and preventing a steady-state desensitization of the channels”. With “lysophosphatidylcholine [lysophosphatidylcholine (LPC)]”, the “Effect on ASIC3” value in the experiment with ASIC3 was “evoking a constitutive depolarizing ASIC3-mediated current”. As for “nociceptin: neuropeptide nociceptin (NC) [PNOC_RAT 135–151] (FGGFTGARKSARKLANQ; Nociceptin; UniProt Q62923 135-151, looked up, fragment)”, the “Effect on ASIC1a” value with ASIC1a is “no effect (neither activating nor inhibitory)”. For the same compound, in the experiment on ASIC channels [3], the “Activating effects on ASIC channels” value is reported as “do not have activating effects on ASIC channels”. Consider “orphanin: neuropeptide orphanin (Orf) [PNOC_RAT 154–170] (FSEFMRQYLVLSMQSSQ; Orphanin FQ2; UniProt Q62923 154-170, looked up, fragment)”, for which the “Effect on ASIC1a” value in the experiment on ASIC1a was “no effect (neither activating nor inhibitory)”. Also, the “Activating effects on ASIC channels” value with ASIC channels [3] was “do not have activating effects on ASIC channels”.
